Test results as given in publication PMC5342526, “Identification of Bisindolylmaleimide IX as a potential agent to treat drug-resistant BCR-ABL positive leukemia” (Oncotarget, 2016).
Like-named read-outs stand apart in the source and are kept apart here.

Columns and labels:
[1] = tested on: p53 in primary MEFs; experiment: p53 protein level by western blot (screen)
Protocol: Cells were lysed in TNEN buffer (50 mM Tris, 150 mM NaCl, 5 mM EDTA, 0.5% NP-40, and 0.1% Triton X-100) supplemented with 1 mM NaF, Na2VO3, 1 mM PMSF, and 1 μg/ml of aprotonin, leupeptin, and pepstatin A. Protein concentrations were determined using a Bio-Rad assay. Proteins were resolved by SDS-PAGE and transferred to polyvinylidene difluoride membranes (Millipore).

[2] = tested on: tumors derived from HCT116; experiment: HCT116 carcinoma xenograft in nude mice; assay type: in vivo, mouse; conditions: 2.5mg/kg for 7 days
Protocol: Male BALB/cASlac-nude mice (4-week-old) were purchased from Shanghai Slac Laboratory Animal C. LTD. The mice were kept in the SPF mouse facility for 1 week before being inoculated with HCT116 cells. HCT116 cells were harvested by trypsinization, counted and resuspended in PBS at the concentration of 5×10^7/ml. We injected subcutaneously 3×10^6 cells to BALB/cASlac nude mice's back. After 2 weeks, the mice were divided into 3 groups (6 mice per group) and were treated with 5-Iodotubercidin (Itu), Bisindolylmaleimide IX or solvent (PBS). The mice were weighed and the size of tumor measured. The length (L) and width (W) of the tumor were measured with a digital caliper and expressed as tumor volume (0.5L×W^2, mm^3).

[3] = tested on: γH2AX foci in MEFs; experiment: γH2AX DNA damage foci, immunofluorescent staining; assay type: cell-based, mouse; conditions: 2.5 μM, 4 hrs
Protocol: MEFs or HCT116 cells were cultured on cover slips while Baf3 cells were cultured on slides coated by 0.1mg/ml poly-L-lysine, washed with phosphate-buffered saline (PBS) twice, and then fixed in 4% paraformaldehyde (PFA), which were permeabilized with 0.1% Triton X in PBS for 30 minutes at room temperature. The primary antibodies were diluted in PBS with 1% BSA (1:200). The slides were blocked (1% BSA in PBS) for 60 minutes at room temperature, incubated with primary antibodies overnight at 4°C, and followed by secondary antibody incubation for 60 min at RT. The slides were then mounted and observed under confocal microscope (Leica, Germany). Antibodies against γH2AX were from Bethyl Corporation.

[4] = tested on: K562 cells; experiment: Wst-1 cell survival assay; conditions: K562, Wst-1
Protocol: We then evaluated the cytotoxic effect of Bisindolylmaleimide IX in MEFs and HCT116 cells. Different doses of Bisindolylmaleimide IX were applied to the cell cultures and cell survival rates and IC50 were determined with Wst-1 assay.
To measure cell survival rates after Bisindolylmaleimide IX treatment, cells were plated at 1×10^4 in 96 well plates and cultured for overnight, which were then treated with Bisindolylmaleimide IX for 48 hrs. Cell proliferation reagent WST-1 (Roche) was added to each well and was further incubated for 4 hrs at 37°C. The absorbance was measured against a control using microplate reader at 440 nm. The reference wavelength was 630 nm.

[5] = tested on: BCR-ABL BaF3 cells
[6] = tested on: K562, HL-60, MCF7, U251, AGS, MGC-803, U2OS and Saos-2 cells; assay type: cell-based
Text: The reference wavelength was 630 nm.
www.impactjournals.com/oncotarget/ Oncotarget, Supplementary Materials 2016 […]

[7] = tested on: B-Raf in BCR-ABL positive BaF3 cells; experiment: B-Raf phosphorylation, western blot; assay type: cell-based, murine
Protocol: Activation and expression of Erk, Mek1, and Raf were determined by western blot. B. Inhibition of Erk decreased the cell survival rates in BaF3 cells expressing BCR-ABL compared to control cells. […] C. […] N=3. Right panel: Western blot results showing that B-Raf was knocked down in these cells.

In the case of `CCCCCCCCCCCCCCCC(=O)OC(CC(=O)O)C[N+](C)(C)C.[Cl-]` (racemic) [Palmitoyl-DL-carnitine Cl], the p53 protein up-regulation [1] is reported as “failed to up-regulate p53 in MEFs”.

In the case of `Nc1ncnc2c1c(I)cn2[C@@H]1O[C@H](CO)[C@@H](O)[C@H]1O` [5-Iodotubercidin], the p53 protein up-regulation [1] is reported as “up-regulate p53 at the protein levels” and the tumor growth [2] is reported as “greatly inhibited tumor growth”.

`CN(C)CCCn1cc(C2=C(c3c[nH]c4ccccc34)C(=O)NC2=O)c2ccccc21` [Bisindolylmaleimide I] was tested, and the p53 protein up-regulation [1] was “failed to up-regulate p53 in MEFs” and the γH2AX foci formation [3] was “minimal numbers of foci”.

`Cn1cc(C2=C(c3cn(C4CCN(Cc5ccccn5)CC4)c4ccccc34)C(=O)NC2=O)c2ccccc21` [Enzastaurin] was tested, and the γH2AX foci formation [3] was “minimal numbers of foci”, the “cytotoxicity (in words)” value [4] was “modest cytotoxic effect” and the “cytotoxic effect (in words)” value ([5]; BCR-ABL BaF3, 24 hrs, compared among bisindolylmaleimide derivatives) was “modest cytotoxic effect”.

For `CC1CNCCN1S(=O)(=O)c1cccc2cnccc12` (stereo not drawn) [H-7], the p53 protein up-regulation [1] was “failed to up-regulate p53 in MEFs”.

For `NCCNS(=O)(=O)c1cccc2cnccc12` [H-9], the p53 protein up-regulation [1] was “failed to up-regulate p53 in MEFs”.

In the case of `COCc1cc(O)c(O)c(O)c1-c1c(COC)cc(O)c(O)c1O` [HBDDE], the p53 protein up-regulation [1] is reported as “failed to up-regulate p53 in MEFs”.

`Cc1cc(O)c2c(=O)c3c(O)cc(O)c4c5c(O)cc(O)c6c(=O)c7c(O)cc(C)c8c1c2c(c34)c(c78)c65` [Hypericin] was tested, and the p53 protein up-regulation [1] was “failed to up-regulate p53 in MEFs”.

In the case of `Cc1ccc(NC(=O)c2ccc(CN3CCN(C)CC3)cc2)cc1Nc1nccc(-c2cccnc2)n1` [Imatinib], the “cytotoxic effects across cell lines (in words)” value [6] is reported as “specificity to BCR-ABL positive cells”.

With `CC(=O)c1c(O)c(C)c(O)c(Cc2c(O)c3c(c(C(=O)/C=C/c4ccccc4)c2O)OC(C)(C)C=C3)c1O` [Rottlerin] the p53 protein up-regulation [1] was “failed to up-regulate p53 in MEFs”.

`CCCCCCCCCCCCC/C=C/[C@@H](O)[C@@H](N)CO` [Sphingosine] was tested, and the p53 protein up-regulation [1] was “failed to up-regulate p53 in MEFs”.

In the case of `N#CC(=C(/N)Sc1ccccc1N)/C(C#N)=C(/N)Sc1ccccc1N` [U0126], the “cell death rates in BCR-ABL expressing BaF3 cells versus control cells” value ([5]; inhibition of Erk) is reported as “increased cell death rates”.

In the case of `COc1cccc2c1C(=O)c1c(O)c3c(c(O)c1C2=O)C[C@@](O)(C(=O)CO)C[C@@H]3O[C@H]1C[C@H](N)[C@H](O)[C@H](C)O1` [doxorubicin], the “phosphorylation of B-Raf” value [7] is reported as “did not affect the phosphorylation of B-Raf”.

`CN[C@@H]1C[C@H]2O[C@@](C)([C@@H]1OC)n1c3ccccc3c3c4c(c5c6ccccc6n2c5c31)C(=O)NC4` [staurosporine] was tested, and the “cytotoxic effects across cell lines (in words)” value ([6]; 24 hrs, Wst-1) was “strong cytotoxic effects in almost all these cell lines” and the p53 protein up-regulation [1] was “failed to up-regulate p53 in MEFs”.

In the case of `COc1cc([C@@H]2c3cc4c(cc3[C@@H](O[C@@H]3O[C@@H]5CO[C@@H](c6cccs6)O[C@H]5[C@H](O)[C@H]3O)[C@H]3COC(=O)[C@H]23)OCO4)cc(OC)c1O` [teniposide], the “phosphorylation of B-Raf” value [7] is reported as “did not affect the phosphorylation of B-Raf” and the “survival of BCR-ABL positive BaF3 cells compared with control cells” value ([5]; 24 hrs, Wst-1) is reported as “increased survival”.
